{"source": "patent US20100076003A1", "about": "“5-OXAZOLIDIN-2-ONE SUBSTITUTED 1,3,8-TRIAZASPIRO[4.5]DECAN-4-ONE DERIVATIVES USEFUL AS ORL-1 RECEPTOR MODULATORS” (priority 2008, published 2010)", "key": {"[1]": {"biological_target": "Kappa (κ) opioid receptor (Homo sapiens, UniProt P41145)", "sequence (P41145 whole entry)": "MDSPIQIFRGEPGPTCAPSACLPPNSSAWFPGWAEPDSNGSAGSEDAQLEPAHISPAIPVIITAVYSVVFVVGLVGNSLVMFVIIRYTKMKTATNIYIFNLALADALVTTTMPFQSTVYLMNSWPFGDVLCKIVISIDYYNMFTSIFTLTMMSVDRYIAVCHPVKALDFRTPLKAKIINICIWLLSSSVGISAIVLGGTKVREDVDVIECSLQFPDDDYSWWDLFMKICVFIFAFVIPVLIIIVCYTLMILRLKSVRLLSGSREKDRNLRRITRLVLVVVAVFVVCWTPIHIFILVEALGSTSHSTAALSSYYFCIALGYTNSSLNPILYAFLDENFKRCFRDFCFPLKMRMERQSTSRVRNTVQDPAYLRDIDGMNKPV", "experiment": "Filtration binding assay, kappa opioid receptor, U-69,593-3H ligand"}, "Mu (μ) opioid receptor": {"biological_target": "Mu (μ) opioid receptor (Homo sapiens, UniProt P35372)", "sequence (P35372 whole entry)": "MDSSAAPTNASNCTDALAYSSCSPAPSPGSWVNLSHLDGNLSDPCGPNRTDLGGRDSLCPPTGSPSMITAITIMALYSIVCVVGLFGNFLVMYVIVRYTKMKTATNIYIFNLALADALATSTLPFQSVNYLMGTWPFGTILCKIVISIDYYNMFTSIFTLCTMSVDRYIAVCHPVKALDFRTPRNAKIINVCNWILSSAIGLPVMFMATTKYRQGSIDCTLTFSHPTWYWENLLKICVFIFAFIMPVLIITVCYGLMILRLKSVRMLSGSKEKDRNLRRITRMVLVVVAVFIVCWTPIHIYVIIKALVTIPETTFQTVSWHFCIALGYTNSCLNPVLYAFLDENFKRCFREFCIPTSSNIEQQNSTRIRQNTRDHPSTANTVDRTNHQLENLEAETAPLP", "experiment": "Filtration binding assay, mu opioid receptor, DAMGO-3H ligand"}, "[2]": {"biological_target": "Delta (δ) opioid receptor (Homo sapiens, UniProt P41143)", "sequence (P41143 whole entry)": "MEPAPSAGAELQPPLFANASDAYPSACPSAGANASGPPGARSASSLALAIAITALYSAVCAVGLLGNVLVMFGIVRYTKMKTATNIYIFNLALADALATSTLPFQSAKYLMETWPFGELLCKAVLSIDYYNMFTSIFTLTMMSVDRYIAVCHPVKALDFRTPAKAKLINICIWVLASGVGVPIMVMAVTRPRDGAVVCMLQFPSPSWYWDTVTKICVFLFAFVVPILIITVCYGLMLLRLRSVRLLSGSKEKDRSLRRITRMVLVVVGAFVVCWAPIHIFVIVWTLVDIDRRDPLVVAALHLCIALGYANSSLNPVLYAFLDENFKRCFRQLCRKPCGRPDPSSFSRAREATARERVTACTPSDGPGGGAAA", "experiment": "Filtration binding assay, delta opioid receptor, DPDPE-3H ligand"}}, "data": [{"compound": "Cc1cccc2cccc(CN3CCC4(CC3)C(=O)N(C[C@H]3CNC(=O)O3)CN4c3ccc(F)cc3)c12", "note": "[Compound 2, 1-(4-Fluoro-phenyl)-8-(8-methyl-naphthalen-1-ylmethyl)-3-(R)-(2-oxo-oxazolidin-5-ylmethyl)-1,3,8-triaza-spiro[4.5]decan-4-one]", "values": [{"measurement": "Ki", "setting": "[1]", "result": 0.64, "unit": "µM"}, {"measurement": "Ki", "setting": "Mu (μ) opioid receptor", "result": 0.74, "unit": "µM"}, {"measurement": "Ki", "setting": "[2]", "result": "> 5", "unit": "µM"}]}, {"compound": "Cc1cccc2cccc(CN3CCC4(CC3)C(=O)N(C[C@H]3CN(C)C(=O)O3)CN4c3ccc(F)cc3)c12", "note": "[Compound 4, 1-(4-Fluoro-phenyl)-8-(8-methyl-naphthalen-1-ylmethyl)-3-(S)-(3-methyl-2-oxo-oxazolidin-5-ylmethyl)-1,3,8-triaza-spiro[4.5]decan-4-one]", "values": [{"measurement": "Ki", "setting": "[1]", "result": 0.12, "unit": "µM"}, {"measurement": "Ki", "setting": "Mu (μ) opioid receptor", "result": 0.36, "unit": "µM"}, {"measurement": "Ki", "setting": "[2]", "result": "> 5", "unit": "µM"}]}, {"compound": "COCCN1C[C@@H](CN2CN(c3ccc(F)cc3)C3(CCN(Cc4cccc5cccc(C)c45)CC3)C2=O)OC1=O", "note": "[Compound 5, 1-(4-Fluoro-phenyl)-3-(R)-[3-(2-methoxy-ethyl)-2-oxo-oxazolidin-5-ylmethyl]-8-(8-methyl-naphthalen-1-ylmethyl)-1,3,8-triaza-spiro[4.5]decan-4-one]", "values": [{"measurement": "Ki", "setting": "[1]", "result": 0.58, "unit": "µM"}, {"measurement": "Ki", "setting": "Mu (μ) opioid receptor", "result": 0.18, "unit": "µM"}, {"measurement": "Ki", "setting": "[2]", "result": "> 5", "unit": "µM"}]}]}
